US7915245B2, “Methods and compositions of trail-death receptor agonists/activators” (The Board of Regents of the University of Texas System, priority 2007, dated 2011)

Experiments:
Format in all cases: in vivo, Balb c nude mice
Conditions in all cases: 40 mg/kg iv, 5 days per week
[1] = test system: prostate cancer PC-3 cells xenografted; test: PC-3 xenograft tumor growth
Experimental: (§1) FIG. 26. […] PC-3 cells (2×10^6 cells, in a final volume of 0.1 ml) were injected subcutaneously in the right flank of Balb c nude mice. After tumor formation (about 100 mm^3), nude mice were treated (iv) with vehicle control (0.1 ml normal saline), DRA11 (20 mg/kg, 0.1 ml volume), DRA11 (30 mg/kg, 0.1 ml volume), and DRA11 (40 mg/kg, 0.1 ml volume) everyday 5 days per week throughout the duration of the experiment. Tumor volume was calculated using the equation: (volume=length×width×depth×0.5236 mm^3). Data represent mean±S.E.
as §1, with “29.” for “26.”, “(1×10^6” for “(2×10^6”, “ml PBS)” for “ml)”, “saline),” for “saline), DRA11 (20 mg/kg, 0.1 ml volume), DRA11 (30 mg/kg, 0.1 ml volume),”, “DRA9S” for “DRA11”, “Data represent mean±S.E.” left out
PC-3 cells (2×10^6 cells, in a final volume of 0.1 ml) were injected subcutaneously in the right flank of Balb c nude mice. […] Tumor volume was calculated using the equation: (volume=length×width×depth×0.5236 mm^3). […]
PC-3 cells (1×10^6 cells, in a final volume of 0.1 ml PBS) were injected subcutaneously in the right flank of Balb c nude mice. […] Tumor volume was calculated using the equation: (volume=length×width×depth×0.5236 mm^3). […]

[2] = test system: breast cancer MDA-MB-468 cells xenografted; test: MDA-MB-468 xenograft tumor growth
Experimental: as §1, with “30.” for “26.”, “MDA-MB-468” for “PC-3”, “ml PBS)” for “ml)”, “saline),” for “saline), DRA11 (20 mg/kg, 0.1 ml volume), DRA11 (30 mg/kg, 0.1 ml volume),”, “DRA9S” for “DRA11”
(§2) MDA-MB-468 cells (2×10^6 cells, in a final volume of 0.1 ml PBS) were injected subcutaneously in the right flank of Balb c nude mice. After tumor formation (about 100 mm^3), nude mice were treated (iv) with vehicle control (0.1 ml normal saline), and DRA9S (40 mg/kg, 0.1 ml volume) everyday 5 days per week throughout the duration of the experiment. Tumor volume was calculated using the equation: (volume=length×width×depth×0.5236 mm^3). See, for example, FIG. 30. Data represent mean ±S.E.

[3] = test system: prostate cancer LNCaP cells xenografted; test: LNCaP xenograft tumor growth
Experimental: as §1, with “28.” for “26.”, “LNCaP” for “PC-3”, “cells as a 50% suspension in Matrigel, Becton Dickinson, Bedford, Mass.,” for “cells,”, “saline),” for “saline), DRA11 (20 mg/kg, 0.1 ml volume), DRA11 (30 mg/kg, 0.1 ml volume),”, “DRA9S” for “DRA11”
as §2, with “LNCaP” for “MDA-MB-468”, “cells as a 50% suspension in Matrigel, Becton Dickinson, Bedford, Mass.,” for “cells,”, “ml)” for “ml PBS)”, “28.” for “30.”

CCOc1cc(Br)c(Br)c(/C=N/c2cccc(C(=O)O)c2C)c1O [DRA9S]
inhibits growth: growth of xenografted PC-3 tumors (tumor volume) [1] | growth of xenografted MDA-MB-468 tumors (tumor volume) [2] | growth of xenografted LNCaP tumors (tumor volume) [3]
